Literature values, collected in patent US20260130846A1, “ORAL PRODUCT” (NICOVENTURES TRADING LIMITED, priority 2022, published 2026).

Legend:
[1] = humans
[2] = mammals

- Time for which brain levels continue to increase after consumption [2]: 4 h
Compound: CCNC(=O)CC[C@H](N)C(=O)O [Theanine, L-γ-glutamylethylamide]
- Absorption; plasma levels after oral consumption [1]: rapidly absorbed, with plasma levels rising in a linear dose-related manner
